According to patent publication US12421205B2, “GLP-1 receptor agonist” (HYUNDAI PHARM CO., LTD., priority 2019, dated 2025):

Legend:
human GLP-1 receptor = target: T1, human GLP-1 receptor (Homo sapiens, UniProt P43220); assay: cAMP activity test (cAMP dynamic HTRF kit) in CHO-K1/GLP-1 receptor-expressing cells; format: cell-based; settings: cAMP activity, CHO-K1/GLP-1 receptor-expressing cells; read-out: EC50
T1 construct: host or cells: CHO-K1
Experimental: The next day, the medium was removed, and a 50 uL of HBSS medium containing 0.1% BSA, 0.5 mM IBMX, and 5 mM HEPES was added to each well. […] The cAMP activity was measured according to the manufacturer's instructions using the cAMP dynamic HTRF kit (Cisbio, 62AM4PEC). After incubation, the medium was discarded, and the cells were lysed. cAMP-d2 and anti-cAMP cryptate conjugate were added thereto and reacted for 3 hours. […] Intracellular cAMP competes with cAMP-d2 for anti-cAMP cryptate, and the measured signal of fluorescence resonance energy transfer (FRET) is inversely proportional to intracellular cAMP.

hERG = target: T2, hERG (Homo sapiens, UniProt Q12809); assay: hERG inhibition test (Predictor hERG Fluorescence Polarization assay kit); format: binding; settings: probe kit Tracer (fluorescent hERG ligand), hERG % inhibition at 10 uM, relative to E-4031 and solvent control
T2 construct: purchased Invitrogen PV5365
T2 sequence (Q12809 whole entry): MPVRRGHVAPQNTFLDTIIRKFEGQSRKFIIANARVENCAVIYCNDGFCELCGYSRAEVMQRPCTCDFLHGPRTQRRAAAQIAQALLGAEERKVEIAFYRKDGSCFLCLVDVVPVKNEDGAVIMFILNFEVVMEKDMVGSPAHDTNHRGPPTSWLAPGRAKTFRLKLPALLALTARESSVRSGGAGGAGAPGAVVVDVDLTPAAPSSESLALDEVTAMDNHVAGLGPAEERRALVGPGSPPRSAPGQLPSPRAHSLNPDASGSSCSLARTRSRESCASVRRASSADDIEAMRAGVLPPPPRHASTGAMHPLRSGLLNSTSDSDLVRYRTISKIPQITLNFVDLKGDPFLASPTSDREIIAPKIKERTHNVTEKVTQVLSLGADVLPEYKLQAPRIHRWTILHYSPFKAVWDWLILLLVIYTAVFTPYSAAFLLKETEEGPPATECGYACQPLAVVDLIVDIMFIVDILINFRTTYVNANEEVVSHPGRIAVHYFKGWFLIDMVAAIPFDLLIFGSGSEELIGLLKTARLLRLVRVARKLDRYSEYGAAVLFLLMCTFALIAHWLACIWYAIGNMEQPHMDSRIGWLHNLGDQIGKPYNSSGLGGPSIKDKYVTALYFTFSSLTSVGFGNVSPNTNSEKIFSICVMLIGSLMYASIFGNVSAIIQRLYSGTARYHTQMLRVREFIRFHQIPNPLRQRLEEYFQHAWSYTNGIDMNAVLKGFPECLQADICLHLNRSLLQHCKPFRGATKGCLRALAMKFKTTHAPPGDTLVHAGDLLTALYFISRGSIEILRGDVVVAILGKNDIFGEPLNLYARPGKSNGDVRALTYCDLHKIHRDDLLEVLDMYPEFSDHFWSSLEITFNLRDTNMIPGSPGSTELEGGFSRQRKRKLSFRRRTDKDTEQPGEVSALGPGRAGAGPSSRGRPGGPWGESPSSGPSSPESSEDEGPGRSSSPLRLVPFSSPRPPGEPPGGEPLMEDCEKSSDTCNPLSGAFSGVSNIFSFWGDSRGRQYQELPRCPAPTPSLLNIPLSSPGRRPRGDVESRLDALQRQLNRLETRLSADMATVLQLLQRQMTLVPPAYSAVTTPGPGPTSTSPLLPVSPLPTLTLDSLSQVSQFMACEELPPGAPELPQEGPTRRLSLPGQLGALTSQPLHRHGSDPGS
Experimental: To measure the hERG (Human ether-a-go-go-related gene) channel inhibition rate of the compound according to the present invention, the following test was performed using a Predictor hERG Fluorescence Polarization assay kit (Invitrogen, PV5365).
Specifically, a test substance was dissolved in DMSO to prepare a 50 mM solution. A 4 mM solution was prepared by diluting the 50 mM solution with DMSO in a U bottom 96-well plate (SPL, 34096), and was then diluted 100-fold with a test buffer to prepare a 40 uM (4×) solution. The positive control E-4031 (3 mM) provided in the kit was diluted 25-fold with a test buffer to prepare a 120 uM solution) 5 uL of the diluted test substance solution was dispensed into a 384-well assay plate (corning, 3677). hERG Membrane (2×) and Tracer (4×) provided in the kit were respectively added at 10 uL and 5 uL, and then subjected to the reaction at room temperature for 2.5 hours. After completion of the reaction, fluorescence polarization (mP) was measured with a Multimode Plate Reader (Perkin-Elmer, Envision) (excitation wavelength of 531 nm, and emission wavelength 579 nm). The value of the percent inhibitory activity (% inhibition) at 10 uM of each test substance was calculated by the following equation, and the results are shown in Table 2: (% inhibition)=100−{(mP of the compound according to the present invention−E-4031 mP)/(mP of the solvent control−E-4031 mP)}×100

T1 sequence (P43220 24-463): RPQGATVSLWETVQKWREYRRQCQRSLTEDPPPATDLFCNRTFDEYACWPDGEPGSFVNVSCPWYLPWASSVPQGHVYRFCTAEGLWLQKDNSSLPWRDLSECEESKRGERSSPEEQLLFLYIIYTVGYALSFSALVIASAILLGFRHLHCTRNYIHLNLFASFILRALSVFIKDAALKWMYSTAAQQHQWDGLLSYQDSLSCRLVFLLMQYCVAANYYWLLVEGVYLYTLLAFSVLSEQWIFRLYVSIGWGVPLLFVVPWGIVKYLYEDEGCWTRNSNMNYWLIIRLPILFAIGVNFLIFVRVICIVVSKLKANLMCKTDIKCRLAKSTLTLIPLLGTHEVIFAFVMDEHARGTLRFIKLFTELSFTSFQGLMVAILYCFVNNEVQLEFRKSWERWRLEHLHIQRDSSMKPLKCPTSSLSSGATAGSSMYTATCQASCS

| EC50 (human GLP-1 receptor) [nM] | SMILES | inhibition at 2.5 h, 10 µM (hERG) [%] |
| --- | --- | --- |
| 31 | O=C(O)c1ccc2nc(Cc3ccc(-c4cccc(OCc5ccc(C(F)(F)F)cc5)n4)c(F)c3)n(CC3CCCO3)c2c1 (stereo not shown) [Example 97, 2-(3-fluoro-4-(6-(4-(trifluoromethyl)benzyloxy)pyridin-2-yl)benzyl)-1-((tetrahydrofuran-2-yl)methyl)-1H-benzo[d]imidazole-6-carboxylic acid] | 6.11 |
| 240 | COCCn1c(Cn2ccc(-c3cccc(OCc4ccc(C#N)cc4F)c3)cc2=O)nc2ccc(C(=O)O)cc21 [Example 104, 2-((4-(3-(4-cyano-2-fluorobenzyloxy)phenyl)-2-oxopyridin-1(2H)-yl)methyl)-1-(2-methoxyethyl)-1H-benzo[d]imidazole-6-carboxylic acid] | 8.69 |
| 110 | O=C(O)c1ccc2nc(Cc3ccc(-c4cccc(OCc5ccc(Cl)cc5F)c4)cc3F)n(C[C@H]3CCCO3)c2c1 [Example 41, (R)-2-((3′-(4-chloro-2-fluorobenzyloxy)-3-fluorobiphenyl-4-yl)methyl)-1-((tetrahydrofuran-2-yl)methyl)-1H-benzo[d]imidazole-6-carboxylic acid] | -16 |
| 14 | Cc1cc(-c2cccc(OCc3ccc(C#N)cc3F)n2)ccc1Cc1nc2ccc(C(=O)O)cc2n1C[C@@H]1CCO1 [Example 133, (S)-2-(4-(6-((4-cyano-2-fluorobenzyl)oxy)pyridin-2-yl)-2-methylbenzyl)-1-(oxetan-2-ylmethyl)-1H-benzo[d]imidazole-6-carboxylic acid] | 41 |
| 1100 | N#Cc1ccc(COc2cc(-c3ccc(Cc4nc5ccc(C(=O)O)cc5n4CC4CCCO4)cc3F)ccc2F)c(F)c1 (stereo not shown) [Example 93, 2-((3′-(4-cyano-2-fluorobenzyloxy)-2,4′-difluorobiphenyl-4-yl)methyl)-1-((tetrahydrofuran-2-yl)methyl)-1H-benzo[d]imidazole-6-carboxylic acid] | 8.9 |
| 88 | COCCn1c(Cc2ccc(-c3cccc(OCc4ccc(Cl)cc4F)c3)cc2F)nc2ccc(C(=O)O)cc21 [Example 36, 2-((3′-(4-chloro-2-fluorobenzyloxy)-3-fluorobiphenyl-4-yl)methyl)-1-(2-methoxyethyl)-1H-benzo[d]imidazole-6-carboxylic acid] | -10.8 |
| 5.8 | N#Cc1ccc(COc2cccc(-c3ccc(Cc4nc5ccc(C(=O)O)cc5n4C[C@@H]4CCO4)cc3F)n2)c(F)c1 [Example 74, (S)-2-(4-(6-(4-cyano-2-fluorobenzyloxy)pyridin-2-yl)-3-fluorobenzyl)-1-(oxetan-2-ylmethyl)-1H-benzo[d]imidazole-6-carboxylic acid] | -16.2 |
| 21 | N#Cc1ccc(COc2cccc(-c3ccc(Cc4nc5ccc(C(=O)O)cc5n4CC4CCCO4)cc3F)n2)c(F)c1 (stereo not shown) [Example 130, 2-(4-(6-((4-cyano-2-fluorobenzyl)oxy)pyridin-2-yl)-3-fluorobenzyl)-1-((tetrahydrofuran-2-yl)methyl)-1H-benzo[d]imidazole-6-carboxylic acid] | -6.76 |
| 110 | COc1cc(-c2cccc(OCc3ccc(C#N)cc3F)n2)ccc1Cc1nc2ccc(C(=O)O)cc2n1CC1CCCO1 (stereo not shown) [Example 64, 2-(4-(6-(4-cyano-2-fluorobenzyloxy)pyridin-2-yl)-2-methoxybenzyl)-1-((tetrahydrofuran-2-yl)methyl)-1H-benzo[d]imidazole-6-carboxylic acid] | -9.05 |
| 320 | O=C(O)c1ccc2nc(Cc3ccc(-c4cccc(OCc5cc(F)cc(Cl)c5)n4)c(F)c3)n(CC3CCCO3)c2c1 (stereo not shown) [Example 100, 2-(4-(6-(3-chloro-5-fluorobenzyloxy)pyridin-2-yl)-3-fluorobenzyl)-1-((tetrahydrofuran-2-yl)methyl)-1H-benzo[d]imidazole-6-carboxylic acid] | -10.2 |
| 270 | COCCn1c(Cc2ccc(-c3cccc(OCc4ccc(C#N)cc4F)c3)cc2F)nc2ccc(C(=O)O)cc21 [Example 26, 2-((3′-(4-cyano-2-fluorobenzyloxy)-3-fluorobiphenyl-4-yl)methyl)-1-(2-methoxyethyl)-1H-benzo[d]imidazole-6-carboxylic acid] | 2.43 |
| 160 | O=C(O)c1ccc2nc(Cc3ccc(-c4cccc(OCc5ccccc5)n4)cc3F)n(CC3CCCO3)c2c1 (stereo not shown) [Example 83, 2-(4-(6-(benzyloxy)pyridin-2-yl)-2-fluorobenzyl)-1-((tetrahydrofuran-2-yl)methyl)-1H-benzo[d]imidazole-6-carboxylic acid] | 2.37 |
| 460 | O=C(O)c1ccc2nc(Cc3ccc(-c4ccc(F)c(OCc5ccc(Cl)cc5F)c4)cn3)n(CC3CCCO3)c2c1 (stereo not shown) [Example 102, 2-((5-(3-(4-chloro-2-fluorobenzyloxy)-4-fluorophenyl)pyridin-2-yl)methyl)-1-((tetrahydrofuran-2-yl)methyl)-1H-benzo[d]imidazole-6-carboxylic acid] | -31.9 |
| 8.2 | O=C(O)c1ccc2nc(Cc3ccc(-c4cccc(OCc5ccc(Cl)cc5F)n4)cc3F)n(CC3CCCO3)c2c1 (stereo not shown) [Example 17, 2-(4-(6-(4-chloro-2-fluorobenzyloxy)pyridin-2-yl)-2-fluorobenzyl)-1-((tetrahydrofuran-2-yl)methyl)-1H-benzo[d]imidazole-6-carboxylic acid] | -9.12 |
| 52 | O=C(O)c1ccc2nc(Cc3ccc(-c4cccc(OCc5ccc(Cl)cc5F)n4)cc3F)n(C[C@H]3CCCO3)c2c1 [Example 51, (R)-2-(4-(6-(4-chloro-2-fluorobenzyloxy)pyridin-2-yl)-2-fluorobenzyl)-1-((tetrahydrofuran-2-yl)methyl)-1H-benzo[d]imidazole-6-carboxylic acid] | -4.69 |
|  | O=C(O)c1ccc2nc(Cc3ccc(-c4cccc(OCc5ccc(Cl)cc5F)n4)cc3F)n(C[C@@H]3CCO3)c2c1 [Example 78, (S)-2-(4-(6-(4-chloro-2-fluorobenzyloxy)pyridin-2-yl)-2-fluorobenzyl)-1-(oxetan-2-ylmethyl)-1H-benzo[d]imidazole-6-carboxylic acid] | -17.9 |
| 70 | O=C(O)c1ccc2nc(Cc3ccc(-c4cccc(OCc5ccc(Cl)c(F)c5)n4)c(F)c3)n(CC3CCCO3)c2c1 (stereo not shown) [Example 99, 2-(4-(6-(4-chloro-3-fluorobenzyloxy)pyridin-2-yl)-3-fluorobenzyl)-1-((tetrahydrofuran-2-yl)methyl)-1H-benzo[d]imidazole-6-carboxylic acid] | -0.33 |
| 1300 | N#Cc1ccc(COc2cccc(-c3ccc(Cc4nc5ccc(C(=O)O)cc5n4C[C@H]4CCCO4)cc3F)c2)c(F)c1 [Example 47, (R)-2-((3′-(4-cyano-2-fluorobenzyloxy)-2-fluorobiphenyl-4-yl)methyl)-1-((tetrahydrofuran-2-yl)methyl)-1H-benzo[d]imidazole-6-carboxylic acid] | -17.1 |
| 5 | O=C(O)c1ccc2nc(Cc3c(F)cc(-c4cccc(OCc5ccc(Cl)cc5F)n4)cc3F)n(CC3CCCO3)c2c1 (stereo not shown) [Example 65, 2-(4-(6-(4-chloro-2-fluorobenzyloxy)pyridin-2-yl)-2,6-difluorobenzyl)-1-((tetrahydrofuran-2-yl)methyl)-1H-benzo[d]imidazole-6-carboxylic acid] | 10.8 |
|  | N#Cc1ccc(COc2cccc(-c3ccc(Cc4nc5ccc(C(=O)O)cc5n4C[C@@H]4CCO4)c(F)c3)n2)c(F)c1 [Example 73, (S)-2-(4-(6-(4-cyano-2-fluorobenzyloxy)pyridin-2-yl)-2-fluorobenzyl)-1-(oxetan-2-ylmethyl)-1H-benzo[d]imidazole-6-carboxylic acid] | -14.6 |
|  | O=C(O)c1ccc2nc(Cc3ccc(-c4cccc(OCC5CC5)n4)c(F)c3)n(C[C@@H]3CCO3)c2c1 [Example 135, (S)-2-(4-(6-(cyclopropylmethoxy)pyridin-2-yl)-3-fluorobenzyl)-1-(oxetan-2-ylmethyl)-1H-benzo[d]imidazole-6-carboxylic acid] | -14 |
|  | O=C(O)c1ccc2nc(Cc3ccc(-c4cccc(OCc5ccc(Cl)cc5)n4)c(F)c3)n(CC3CCCO3)c2c1 (stereo not shown) [Example 94, 2-(4-(6-(4-chlorobenzyloxy)pyridin-2-yl)-3-fluorobenzyl)-1-((tetrahydrofuran-2-yl)methyl)-1H-benzo[d]imidazole-6-carboxylic acid] | 18.9 |
